Where a SMILES comes first, the peptide text is derived from it. [ ]: non-standard residue; d: D form. The star is where a group is joined. Thr(SO3H) = C[C@@H](OS(=O)(=O)O)[C@H](N)C(=O)O; sY = N[C@@H](Cc1ccc(OS(=O)(=O)O)cc1)C(=O)O; N(CH2CH2NHAc)Gly = CC(=O)NCCNCC(=O)O; NMeF = CN[C@@H](Cc1ccccc1)C(=O)O; Nle = CCCC[C@H](N)C(=O)O; For = O=C*
Tests used:
[1] = system: Male Sprague-Dawley (CD) rats, food intake; experiment: Two-meal feeding assay, intraperitoneal administration; type: in vivo, rat
Protocol: Male Sprague-Dawley (CD) rats weighing 180-200 grams (Charles River Breeding Laboratories) were acclimated to a 12 h light/dark cycle (6 a.m. to 6 p.m.) in a room kept at 22° C. They were subsequently fasted for two days, weighed, placed in individual cages, and a four-day period of meal training was begun. During this time the rats were given ground laboratory chow (Purina Lab Chow) in jars for one hour from 9:00 a.m. until 10:00 a.m., the jars were removed from 10:00 a.m. to 12:00 p.m., and placed back in the cages from 12:00 until 1:00 p.m. Under this `1-2-1` meal feeding regime most rats learn to eat approximately as much Per day during the two hours they have access to food as rats which have food ad libitum over the entire 24-hour day. On the fourth day, the rats were weighed again, and any which lost more than five grams body weight were excluded from the test. The animals were then distributed into experimental (n=5 to 6) and control groups (n=6-12). but not matched for body weight.
Peptides of the invention were suspended either in saline. if soluble, or in 1% gum arabic, if insoluble, at concentrations of 0 to 320 μg/ml/kg body weight and were administered intraperitonerally 15 min before the first meal on day 5 of meal feeding. The rats were then given their meals as they had been during the previous four days, and the food cups were weighed both before and after each meal to determine food consumption. Food intake was expressed as a mean and standard error of the mean in grams consumed or as a percent of control values for the various groups. The treated groups were compared to the control groups by t-test analysis. […]

[2] = molecular target: T1, receptors in rat pancreas (3H-CCK-8-(SO3 H) binding) (Rattus norvegicus, UniProt P30551); experiment: In vitro receptor binding assay, rat pancreas homogenate, 3H-CCK-8-(SO3H) radioligand; details: 0.15 nM radioligand, 30 min, 25° C.; read-out: Rat Pancreas IC50 (inhibition of specific 3H-CCK-8-(SO3H) binding)
T1 construct: receptors in homogenized preparations of rat pancreatic cells and bovine striata; from tissue; host or cells: rat pancreas homogenate (48,000 x g pellet)
T1 sequence (P30551 1-444): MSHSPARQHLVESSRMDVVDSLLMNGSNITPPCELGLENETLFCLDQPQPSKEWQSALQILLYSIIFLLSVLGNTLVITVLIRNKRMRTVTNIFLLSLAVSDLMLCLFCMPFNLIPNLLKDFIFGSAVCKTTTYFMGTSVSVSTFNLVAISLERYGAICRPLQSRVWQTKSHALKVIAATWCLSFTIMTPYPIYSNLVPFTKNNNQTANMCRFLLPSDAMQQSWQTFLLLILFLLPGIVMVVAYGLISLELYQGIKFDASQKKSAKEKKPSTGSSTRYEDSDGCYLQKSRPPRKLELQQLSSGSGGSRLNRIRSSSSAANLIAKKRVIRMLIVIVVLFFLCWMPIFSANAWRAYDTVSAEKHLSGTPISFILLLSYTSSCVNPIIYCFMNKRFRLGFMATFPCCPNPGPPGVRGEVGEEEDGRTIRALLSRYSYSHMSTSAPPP
Protocol: This strategy was utilized to minimize central nervous system side effects by identifying peptides with peripheral receptor selectivity. […] The tissue was homogenized 2 x for approx. 15 sec. at 0° C. using a Polytron homogenizer at a setting of 6. The tissue was isolated by centrifugation at 48,000 x g for 10 min. at 0° C. […] Samples were incubated for 30 min. at 25° C. and the incubation terminated by pouring the mixture onto a pre-wet Whatman GF/B filter on a Sandbeck Vacuum Filtration Manifold. The incubation tubes were washed with 2×3 ml of ice-cold HEPES Buffer #2 and the wash filtered through the GF/B filter. The filter was air dried for 10 min. and then placed in a scintillation vial with 12 ml of Beckman HP/b Ready-Solv scintillation cocktail. The vials were shaken for 2 hours and then counted using a Beckman Model 7800 liquid scintillation spectrometer.

[3] = molecular target: T2, receptors in bovine striatum (3H-CCK-8-(SO3 H) binding, central receptor) (Bos taurus, UniProt P79266); experiment: In vitro receptor binding assay, bovine striatum homogenate, 3H-CCK-8-(SO3H) radioligand; details: 0.15 nM radioligand, 30 min, 25° C.; read-out: Bovine Striatum IC50 (inhibition of specific 3H-CCK-8-(SO3H) binding)
T2 construct: receptors in homogenized preparations of rat pancreatic cells and bovine striata; from tissue; host or cells: bovine striatum homogenate (48,000 x g pellet)
T2 sequence (P79266 1-454): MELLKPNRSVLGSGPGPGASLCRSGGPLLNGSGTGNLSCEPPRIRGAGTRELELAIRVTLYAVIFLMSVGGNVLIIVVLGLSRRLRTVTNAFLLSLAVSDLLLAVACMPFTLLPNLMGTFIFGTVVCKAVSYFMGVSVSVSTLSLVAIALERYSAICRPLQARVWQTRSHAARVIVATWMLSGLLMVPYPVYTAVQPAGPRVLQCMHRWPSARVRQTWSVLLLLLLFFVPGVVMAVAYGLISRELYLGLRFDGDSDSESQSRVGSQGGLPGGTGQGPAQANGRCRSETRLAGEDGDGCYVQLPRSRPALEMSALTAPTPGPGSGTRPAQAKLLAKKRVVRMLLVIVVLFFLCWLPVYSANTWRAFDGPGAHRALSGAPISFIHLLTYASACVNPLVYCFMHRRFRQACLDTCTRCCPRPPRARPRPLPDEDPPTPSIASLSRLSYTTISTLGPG
Protocol: Frozen bovine striatum (approx. 5 g) and fresh rat pancreas (approx. 5 g) cleaned of fat and extraneous tissue were homogenized in HEPES buffer #1 (10 mM HEPES+130 mM NaCl+5 mM MgCl2. pH 7.4) using 35 parts buffer per 1 part tissue on a wet weight/volume basis (approx. 175 ml). The tissue was homogenized 2 x for approx. 15 sec. at 0° C. using a Polytron homogenizer at a setting of 6. The tissue was isolated by centrifugation at 48,000 x g for 10 min. at 0° C. The resulting tissue pellet was resuspended in HEPES buffer #2 (10 mM HEPES+130 mM NaCl+5 mM MgCl2 +1 mg/L phenylmethanesulfonyl fluoride (PMSF)+200 mg/L Bacitracin): 1 part striatal tissue (original wet weight) per 80 parts buffer and 1 part pancreas tissue (original wet weight) per 70 parts buffer.
Incubation was initiated by combining various concentrations of native CCK-8 or peptides of formula I, II and III with ^3 H-CCK-8-(SO3 H) (final conc.=0.15 nM) and tissue homogenate (striatum 0.26 mg protein in 2 ml final volume; pancreas 0.165 mg protein in 1 ml final volume). Samples were incubated for 30 min. at 25° C. and the incubation terminated by pouring the mixture onto a pre-wet Whatman GF/B filter on a Sandbeck Vacuum Filtration Manifold. The incubation tubes were washed with 2×3 ml of ice-cold HEPES Buffer #2 and the wash filtered through the GF/B filter. The filter was air dried for 10 min. and then placed in a scintillation vial with 12 ml of Beckman HP/b Ready-Solv scintillation cocktail. The vials were shaken for 2 hours and then counted using a Beckman Model 7800 liquid scintillation spectrometer. Non-specific binding was determined in the presence of 1 micromole native CCK-8 and subtracted from all samples to determine specific binding. The concentration of ^3 peptide necessary to inhibit 50% of total specific H-CCK-8-(SO3 H) binding (IC50 value) was determined by log-probit analysis.

[4] = 32 microgm/Kg i.p., 15 min before first meal, mean ± SEM

Row | SMILES | IC50 [2] [µM] | IC50 [3] [µM] | Food Intake 1st Meal [1, 4] | Food Intake 2nd Meal ([1]; 32 microgm/Kg i.p., mean ± SEM) | also measured
1 | CCCC[C@H](NC(=O)[C@H](Cc1ccc(OS(=O)(=O)O)cc1)NC(C)=O)C(=O)NCC(=O)N[C@@H](Cc1c[nH]c2ccccc12)C(=O)N[C@@H](CCCC)C(=O)N[C@H](C(=O)N(C)[C@@H](Cc1ccccc1)C(N)=O)[C@@H](C)OS(=O)(=O)O [Example 13, Ac-Tyr-(SO3 H)-Nle-Gly-Trp-Nle-Thr(SO3 H)-N-methyl-Phe-NH2] (Ac-[sY][Nle]GW[Nle][Thr(SO3H)][NMeF]-NH2) |  |  | 21 ± 12 % of Control | 52 ± 13 % of Control | Food Intake 1st Meal ([1]; 1 microgm/Kg i.p.): 36 ± 4 % of Control; Food Intake 2nd Meal ([1]; 1 microgm/Kg i.p.): 71 ± 13 % of Control; Food Intake 1st Meal ([1]; 3 microgm/Kg i.p.): 23 ± 13 % of Control; Food Intake 2nd Meal ([1]; 3 microgm/Kg i.p.): 59 ± 6 % of Control; Food Intake 1st Meal ([1]; 10 microgm/Kg i.p.): 13 ± 1 % of Control; Food Intake 2nd Meal ([1]; 10 microgm/Kg i.p.): 62 ± 8 % of Control; Food Intake 1st Meal ([1]; 16 microgm/Kg i.p.): 27 ± 17 % of Control; Food Intake 2nd Meal ([1]; 16 microgm/Kg i.p.): 45 ± 11 % of Control
2 | CSCC[C@H](NC(=O)[C@H](Cc1ccc(OS(=O)(=O)O)cc1)NC(=O)CNCCNC(C)=O)C(=O)NCC(=O)N[C@@H](Cc1cn(C=O)c2ccccc12)C(=O)N[C@@H](CCSC)C(=O)N[C@H](C(=O)N(C)[C@@H](Cc1ccccc1)C(N)=O)[C@@H](C)OS(=O)(=O)O [Example 7, Ac-Aeg-Tyr(SO3 H)-Met-Gly-Trp(For)-Met-Thr(SO3 H)-N-methyl-Phe-NH2] (H-[N(CH2CH2NHAc)Gly][sY]MGW(For)M[Thr(SO3H)][NMeF]-NH2) |  |  | 17 ± 9 % of Control | 95 ± 16 % of Control | 
3 | CSCC[C@H](NC(=O)[C@H](Cc1c[nH]c2ccccc12)NC(=O)CNC(=O)[C@H](Cc1ccc(OS(=O)(=O)O)cc1)NC(C)=O)C(=O)N[C@H](C(=O)N(C)[C@@H](Cc1ccccc1)C(N)=O)[C@@H](C)OS(=O)(=O)O [Example 14, Ac-Tyr(SO3 H)-Gly-Trp-Met-Thr(SO3 H)-N-methyl-Phe-NH2] (Ac-[sY]GWM[Thr(SO3H)][NMeF]-NH2) |  |  | 36 ± 8 % of Control | 141 ± 9 % of Control | Food Intake 1st Meal ([1]; 3 microgm/Kg i.p.): 86 ± 16 % of Control; Food Intake 2nd Meal ([1]; 3 microgm/Kg i.p.): 120 % of Control; Food Intake 1st Meal ([1]; 320 microgm/Kg i.p.): 4 ± 5 % of Control; Food Intake 2nd Meal ([1]; 320 microgm/Kg i.p.): 121 ± 3 % of Control

The next lines start with results.

Row | IC50 [2] [µM] | IC50 [3] [µM] | SMILES | Food Intake 1st Meal [1, 4] | Food Intake 2nd Meal ([1]; 32 microgm/Kg i.p., mean ± SEM) | also measured
4 | 0.1 | 1.75 | CSCC[C@H](NC(=O)[C@H](Cc1ccc(OS(=O)(=O)O)cc1)NC(C)=O)C(=O)N[C@@H](C)C(=O)N[C@@H](Cc1c[nH]c2ccccc12)C(=O)N[C@@H](CCSC)C(=O)N[C@H](C(=O)N(C)[C@@H](Cc1ccccc1)C(N)=O)[C@@H](C)OS(=O)(=O)O [Example 6, Ac-Tyr(SO3 H)-Met-Ala-Trp-Met-Thr(SO3 H)-N-methyl-Phe-NH2] (Ac-[sY]MAWM[Thr(SO3H)][NMeF]-NH2) | 14 ± 6 % of Control | 114 ± 9 % of Control | 
5 | 4.2 | 4.1 | CSCC[C@H](NC(=O)[C@H](Cc1ccc(OS(=O)(=O)O)cc1)NC(C)=O)C(=O)N[C@@H](C)C(=O)N[C@@H](Cc1cn(C=O)c2ccccc12)C(=O)N[C@@H](CCSC)C(=O)N[C@H](C(=O)N(C)[C@@H](Cc1ccccc1)C(N)=O)[C@@H](C)OS(=O)(=O)O [Example 5, Ac-Tyr(SO3 H)-Met-Ala-Trp(For)-Met-Thr(SO3 H)-N-methyl-Phe-NH2] (Ac-[sY]MAW(For)M[Thr(SO3H)][NMeF]-NH2) | 70 ± 2 % of Control | 133 ± 9 % of Control | 
6 | 0.0094 | 1 | CSCC[C@H](NC(=O)[C@H](Cc1ccc(OS(=O)(=O)O)cc1)NC(C)=O)C(=O)NCC(=O)N[C@@H](Cc1cn(C=O)c2ccccc12)C(=O)N[C@@H](CCSC)C(=O)N[C@H](C(=O)N(C)[C@@H](Cc1ccccc1)C(N)=O)[C@@H](C)OS(=O)(=O)O [Example 1, Ac-Tyr(SO3 H)-Met-Gly-Trp(For)-Met-Thr(SO3 H)-N-methyl-Phe-NH2] (Ac-[sY]MGW(For)M[Thr(SO3H)][NMeF]-NH2) | 23 ± 13 % of Control | 55 ± 10 % of Control | 
7 | 0.044 | 0.1 | CCCC[C@H](NC(=O)[C@H](Cc1ccc(OS(=O)(=O)O)cc1)NC(C)=O)C(=O)N[C@H](C)C(=O)N[C@@H](Cc1c[nH]c2ccccc12)C(=O)N[C@@H](CCSC)C(=O)N[C@H](C(=O)N(C)[C@@H](Cc1ccccc1)C(N)=O)[C@@H](C)OS(=O)(=O)O [Example 4, Ac-Tyr(SO3 H)-Nle-(D)Ala-Trp-Met-Thr(SO3 H)-n-Methyl-Phe-NH2] (Ac-[sY][Nle][dA]WM[Thr(SO3H)][NMeF]-NH2) | 5 ± 5 % of Control | 79 ± 13 % of Control | 
